Laboratory results: patent US20240033259A1, “COMPOSITIONS AND METHODS FOR TREATING OR PREVENTING DISEASE ASSOCIATED WITH BETA CORONAVIRUS INFECTION” (priority 2020, published 2024)
Where two headings read alike, the source gives them in different places.

Legend:
[1] = tested on: SARS-CoV-2; assay: microbe, parasite or virus in culture; format: cell-based; details: Severe acute respiratory syndrome coronavirus 2, Vero C1008, 96 h
[2] = tested on: SARS-CoV-2; assay: microbe, parasite or virus in culture; format: cell-based
[3] = tested on: Vero E6 cells
[4] = in vitro; details: African green monkey
[5] = CPE assay, percent cell protection, moi 0.05, 4 days, read-out: EC50
[6] = Severe acute respiratory syndrome coronavirus 2, Vero C1008, Table 2, naproxen/ketotifen experiment
[7] = Table 2, column 50 μM (head: Concentration Naproxen)

Compound | EC50 [1, 5] [µM] | inhibition of SARS-CoV-2 / viral yield (in words) [2] | Percentage viability ([3]; concentration 0.39 μM) [%] | Percentage viability ([3]; concentration 0.78 μM) [%] | Percentage viability ([3]; concentration 1.56 μM) [%] | Percentage viability ([3]; concentration 3.13 μM) [%] | Percentage viability ([3]; concentration 6.25 μM) [%] | Percentage viability ([3]; concentration 12.5 μM) [%] | Percentage viability ([3]; concentration 25 μM) [%] | Percentage viability ([3]; concentration 50 μM) [%] | CC50 [4] [µM] | EC50 [1] [µM] | EC50 [2, 6] [µM] | percentage inhibition of SARS-CoV-2 [2, 7] [%] | also measured
COc1ccc2c(c1)c(CC(=O)O)c(C)n2C(=O)c1ccc(Cl)cc1 [Indomethacin, 2-{1-[(4-Chlorophenyl)-carbonyl]-5-methoxy-2-methyl-1H-indol-3-yl}acetic acid] | > 400 | inhibited SARS-CoV-2 | 98 | 106 | 111 | 117 | 124 | 124 | 125 | 143 | > 400 |  |  |  | EC50 ([2]; Severe acute respiratory syndrome coronavirus 2, Vero C1008, Table 4, indomethacin titrated, alone or with fixed ketotifen): 100 µM; inhibition at 25 µM ([2]; Severe acute respiratory syndrome coronavirus 2, Vero C1008, Table 4, Concentration Indomethacin 25 μM, read-out: percentage inhibition of SARS-CoV-2): 0%; inhibition at 50 µM ([2]; Severe acute respiratory syndrome coronavirus 2, Vero C1008, Table 4, Concentration Indomethacin 50 μM, read-out: percentage inhibition of SARS-CoV-2): 0%; inhibition at 100 µM ([2]; Severe acute respiratory syndrome coronavirus 2, Vero C1008, Table 4, Concentration Indomethacin 100 μM, read-out: percentage inhibition of SARS-CoV-2): 50%; Percentage viability ([3]; concentration 100 μM): 143%
CN1CCC(=C2c3ccccc3CC(=O)c3sccc32)CC1 [Ketotifen] |  | inhibited SARS-CoV-2 | 103 | 101 | 109 | 121 | 125 | 122 | 104 | 86 | 139 | > 139 | 48.9 | 68 | EC50 ([2]; Severe acute respiratory syndrome coronavirus 2, Vero C1008, Table 3, ketotifen titrated, alone or with fixed indomethacin): 47.1 µM; inhibition at 6.25 µM ([2]; Severe acute respiratory syndrome coronavirus 2, Vero C1008, Table 3, Concentration Ketotifen 6.25 μM, read-out: percentage inhibition of SARS-CoV-2): 0%; inhibition at 12.5 µM ([2]; Severe acute respiratory syndrome coronavirus 2, Vero C1008, Table 3, Concentration Ketotifen 12.5 μM, read-out: percentage inhibition of SARS-CoV-2): 0%; inhibition at 25 µM ([2]; Severe acute respiratory syndrome coronavirus 2, Vero C1008, Table 3, Concentration Ketotifen 25 μM, read-out: percentage inhibition of SARS-CoV-2): 0%; inhibition at 50 µM ([2]; Severe acute respiratory syndrome coronavirus 2, Vero C1008, Table 3, Concentration Ketotifen 50 μM, read-out: percentage inhibition of SARS-CoV-2): 60%; Percentage viability ([3]; concentration 0.20 μM): 110%
COc1ccc2cc(C(C)C(=O)O)ccc2c1 (stereo not drawn) [Naproxen, 6-methoxy-α-methyl-2-naphthaleneacetic acid] | > 400 |  |  |  |  |  |  |  |  |  |  |  | > 100 | 0 | percentage inhibition of SARS-CoV-2 ([2]; Table 2, column 6.25 μM (head: Concentration Naproxen)): 0%; percentage inhibition of SARS-CoV-2 ([2]; Table 2, column 12.5 μM (head: Concentration Naproxen)): 21%; percentage inhibition of SARS-CoV-2 ([2]; Table 2, column 25 μM (head: Concentration Naproxen)): 0%; percentage inhibition of SARS-CoV-2 ([2]; Table 2, column 100 μM (head: Concentration Naproxen)): 0%
CCC(CC)COC(=O)[C@H](C)N[P@](=O)(OC[C@H]1O[C@@](C#N)(c2ccc3c(N)ncnn23)[C@H](O)[C@@H]1O)Oc1ccccc1 [Remdesivir] |  |  |  |  |  |  |  |  |  |  |  | 2.9 |  |  | 
